According to the NIST ThermoML archive (doi:10.1016/j.fluid.2013.01.025):
± gives the expanded uncertainty stated by the source.

What was measured:
[1] = 101 kPa, Liquid, Vibrating tube method
[2] = xn = mol fraction of the nth substance listed; conditions: 101 kPa, Liquid, Vibrating tube method

OCCO [1,2-ethanediol]
[1]
Conditions	mass density [kg/m3]
278.15 K	1123.8 ± 1
323.15 K	1092.14 ± 1

OCCO [1,2-ethanediol] + O
mass density [kg/m3], [2]
Conditions	278.15 K	288.15 K	298.15 K	308.15 K	323.15 K
x1 = 0.02277	1010.24 ± 1	1008.82 ± 1	1006.33 ± 1	1002.99 ± 1	996.6 ± 1
x1 = 0.05488	1023.85 ± 1	1021.56 ± 1	1018.45 ± 1	1014.58 ± 1	1007.61 ± 1
x1 = 0.07829	1032.87 ± 1	1030.01 ± 1	1026.44 ± 1	1022.21 ± 1	1014.78 ± 1
x1 = 0.1012	1040.89 ± 1	1037.48 ± 1	1033.52 ± 1	1028.99 ± 1	1021.16 ± 1
x1 = 0.158	1057.7 ± 1	1053.26 ± 1	1048.42 ± 1	1043.17 ± 1	1034.52 ± 1
x1 = 0.2	1067.88 ± 1	1062.86 ± 1	1057.55 ± 1	1051.92 ± 1	1042.75 ± 1
x1 = 0.299	1085.43 ± 1	1079.59 ± 1	1073.54 ± 1	1067.25 ± 1	1057.39 ± 1
x1 = 0.3917	1096.56 ± 1	1090.28 ± 1	1083.85 ± 1	1077.24 ± 1	1067.02 ± 1
x1 = 0.5006	1105.57 ± 1	1098.99 ± 1	1092.32 ± 1	1085.51 ± 1	1075.02 ± 1
x1 = 0.6041	1111.55 ± 1	1104.81 ± 1	1098 ± 1	1091.09 ± 1	1080.49 ± 1
x1 = 0.7063	1115.93 ± 1	1109.12 ± 1	1102.24 ± 1	1095.28 ± 1	1084.61 ± 1
x1 = 0.8049	1119.14 ± 1	1112.26 ± 1	1105.34 ± 1	1098.34 ± 1	1087.65 ± 1
x1 = 0.9034	1121.73 ± 1	1114.79 ± 1	1107.84 ± 1	1100.82 ± 1	1090.14 ± 1
x1 = 0.9535	1122.81 ± 1	1115.88 ± 1	1108.92 ± 1	1101.89 ± 1	1091.19 ± 1
x1 = 0.9826	1123.42 ± 1	1116.49 ± 1	–	1102.48 ± 1	1091.78 ± 1
x1 = 1	1123.8 ± 1	–	–	–	1092.14 ± 1

O [water] + OCCO
[2], x2 = 0
Conditions	mass density [kg/m3]
278.15 K	999.96 ± 1
323.15 K	988.03 ± 1
